Source: ChEMBL document CHEMBL1136696, “Azalide 3,6-ketals: antibacterial activity and structure-activity relationships of aryl and hetero aryl substituted analogues” (Bioorg Med Chem Lett, 2003)
≈ marks a conversion by molar mass, not a printed value.

Legend:
Format in all cases: functional
Pasteurella multocida = assay: In vitro antibacterial activity against Pasteurella multocida 59A0067
Staphylococcus aureus = assay: In vitro antibacterial activity against Staphylococcus aureus 01A0758
Escherichia coli = assay: In vitro antibacterial activity against Escherichia coli 51A0150

Compound	MIC (Pasteurella multocida) [µg/mL]	MIC (Staphylococcus aureus) [µg/mL]	MIC (Escherichia coli) [µg/mL]
CC[C@H]1OC(=O)[C@H](C)[C@H]2OC3(CCN(c4ccc(C(=O)OCc5ccccc5)c(C(F)(F)F)c4)CC3)O[C@](C)(C[C@@H](C)CN(C)[C@H](C)[C@@H](O)[C@]1(C)O)[C@H](O[C@@H]1O[C@H](C)CC(N(C)C)[C@H]1O)[C@H]2C (some centres undefined)	0.39 (≈ 0.41 µM)	0.78 (≈ 0.821 µM)	3.13 (≈ 3.29 µM)
CC[C@H]1OC(=O)[C@H](C)[C@H]2OC3(CCN(c4ccc([N+](=O)[O-])cn4)CC3)O[C@](C)(C[C@@H](C)CN[C@H](C)[C@@H](O)[C@]1(C)O)[C@H](O[C@@H]1O[C@H](C)CC(N(C)C)[C@H]1O)[C@H]2C (some centres undefined)	0.39 (≈ 0.5 µM)	1.56 (≈ 2 µM)	3.13 (≈ 4.01 µM)
CC[C@H]1OC(=O)[C@H](C)[C@H]2OC3(CCN(c4ccc(C(=O)OCc5ccccc5)cc4)CC3)O[C@](C)(C[C@@H](C)CN(C)[C@H](C)[C@@H](O)[C@]1(C)O)[C@H](O[C@@H]1O[C@H](C)CC(N(C)C)[C@H]1O)[C@H]2C (some centres undefined)	0.39 (≈ 0.442 µM)	3.13 (≈ 3.55 µM)	3.13 (≈ 3.55 µM)
CC[C@H]1OC(=O)[C@H](C)[C@H]2OC3(CCN(c4ccc(C(F)(F)F)cn4)CC3)O[C@](C)(C[C@@H](C)CN[C@H](C)[C@@H](O)[C@]1(C)O)[C@H](O[C@@H]1O[C@H](C)CC(N(C)C)[C@H]1O)[C@H]2C (some centres undefined)	0.78 (≈ 0.971 µM)	1.56 (≈ 1.94 µM)	12.5 (≈ 15.6 µM)
CC[C@H]1OC(=O)[C@H](C)C2OC3(CCNCC3)O[C@](C)(C[C@@H](C)CN(C)[C@H](C)[C@@H](O)[C@]1(C)O)[C@H](O[C@@H]1O[C@H](C)C[C@H](N(C)C)[C@H]1O)[C@H]2C	< 0.05	6.25 (≈ 9.3 µM)	0.39 (≈ 0.58 µM)
CC[C@H]1OC(=O)[C@H](C)[C@H]2OC3(CCN(c4ccc(N)cc4)CC3)O[C@](C)(C[C@@H](C)CN(C)[C@H](C)[C@@H](O)[C@]1(C)O)[C@H](O[C@@H]1O[C@H](C)CC(N(C)C)[C@H]1O)[C@H]2C (some centres undefined)	1.56 (≈ 2.04 µM)	6.35 (≈ 8.32 µM)	12.5 (≈ 16.4 µM)
CC[C@H]1OC(=O)[C@H](C)[C@H]2OC3(CCN(c4ccc(S(=O)(=O)c5ccc(F)cc5)cc4)CC3)O[C@](C)(C[C@@H](C)CN(C)[C@H](C)[C@@H](O)[C@]1(C)O)[C@H](O[C@@H]1O[C@H](C)CC(N(C)C)[C@H]1O)[C@H]2C (some centres undefined)	1.56 (≈ 1.72 µM)	3.13 (≈ 3.45 µM)	> 50
CCOC(=O)c1ccc(N2CCC3(CC2)O[C@H]2[C@H](C)[C@@H](O[C@@H]4O[C@H](C)CC(N(C)C)[C@H]4O)[C@@](C)(C[C@@H](C)CN[C@H](C)[C@@H](O)[C@](C)(O)[C@@H](CC)OC(=O)[C@@H]2C)O3)nc1 (some centres undefined)	3.13 (≈ 3.88 µM)	6.25 (≈ 7.74 µM)	50 (≈ 62 µM)
CC[C@H]1OC(=O)[C@H](C)[C@H]2OC3(CCN(c4ncccn4)CC3)O[C@](C)(C[C@@H](C)CN(C)[C@H](C)[C@@H](O)[C@]1(C)O)[C@H](O[C@@H]1O[C@H](C)CC(N(C)C)[C@H]1O)[C@H]2C (some centres undefined)	0.1 (≈ 0.133 µM)	1.56 (≈ 2.08 µM)	1.56 (≈ 2.08 µM)
CC[C@H]1OC(=O)[C@H](C)[C@H]2OC3(CCN(c4cc(C)c([N+](=O)[O-])cn4)CC3)O[C@](C)(C[C@@H](C)CN[C@H](C)[C@@H](O)[C@]1(C)O)[C@H](O[C@@H]1O[C@H](C)CC(N(C)C)[C@H]1O)[C@H]2C (some centres undefined)	1.56 (≈ 1.96 µM)	0.78 (≈ 0.982 µM)	6.25 (≈ 7.87 µM)
CC[C@H]1OC(=O)[C@H](C)[C@H]2OC3(CCN(c4ccc(C#N)cc4)CC3)O[C@](C)(C[C@@H](C)CN(C)[C@H](C)[C@@H](O)[C@]1(C)O)[C@H](O[C@@H]1O[C@H](C)CC(N(C)C)[C@H]1O)[C@H]2C (some centres undefined)	0.39 (≈ 0.505 µM)	3.13 (≈ 4.05 µM)	25 (≈ 32.3 µM)
CC[C@H]1OC(=O)[C@H](C)[C@H]2OC3(CCN(c4ccc(C(=O)OCc5ccccc5)cc4F)CC3)O[C@](C)(C[C@@H](C)CN[C@H](C)[C@@H](O)[C@]1(C)O)[C@H](O[C@@H]1O[C@H](C)CC(N(C)C)[C@H]1O)[C@H]2C (some centres undefined)	3.13 (≈ 3.53 µM)	0.39 (≈ 0.44 µM)	> 50
CC[C@H]1OC(=O)[C@H](C)[C@H]2OC3(CCN(c4nc5ccccc5o4)CC3)O[C@](C)(C[C@@H](C)CN(C)[C@H](C)[C@@H](O)[C@]1(C)O)[C@H](O[C@@H]1O[C@H](C)CC(N(C)C)[C@H]1O)[C@H]2C (some centres undefined)	0.78 (≈ 0.989 µM)	3.13 (≈ 3.97 µM)	6.25 (≈ 7.92 µM)
CC[C@H]1OC(=O)[C@H](C)[C@H]2OC3(CCN(c4ccccc4[N+](=O)[O-])CC3)O[C@](C)(C[C@@H](C)CN(C)[C@H](C)[C@@H](O)[C@]1(C)O)[C@H](O[C@@H]1O[C@H](C)CC(N(C)C)[C@H]1O)[C@H]2C (some centres undefined)	0.39 (≈ 0.492 µM)	1.56 (≈ 1.97 µM)	3.13 (≈ 3.95 µM)
CC[C@H]1OC(=O)[C@H](C)[C@H]2OC3(CCN(c4ncc(C(=O)OCc5ccccc5)c(C(F)(F)F)n4)CC3)O[C@](C)(C[C@@H](C)CN(C)[C@H](C)[C@@H](O)[C@]1(C)O)[C@H](O[C@@H]1O[C@H](C)CC(N(C)C)[C@H]1O)[C@H]2C (some centres undefined)	> 50	1.17 (≈ 1.23 µM)	> 50
CC[C@H]1OC(=O)[C@H](C)[C@H]2OC3(CCN(c4nc(Cl)nc(-c5ccccc5)n4)CC3)O[C@](C)(C[C@@H](C)CN(C)[C@H](C)[C@@H](O)[C@]1(C)O)[C@H](O[C@@H]1O[C@H](C)CC(N(C)C)[C@H]1O)[C@H]2C (some centres undefined)	> 50	1.56 (≈ 1.81 µM)	> 50
CC[C@H]1OC(=O)[C@H](C)[C@H]2OC3(CCN(c4ncccc4[N+](=O)[O-])CC3)O[C@](C)(C[C@@H](C)CN[C@H](C)[C@@H](O)[C@]1(C)O)[C@H](O[C@@H]1O[C@H](C)CC(N(C)C)[C@H]1O)[C@H]2C (some centres undefined)	0.2 (≈ 0.256 µM)	0.78 (≈ 1 µM)	6.25 (≈ 8.01 µM)
CC[C@H]1OC(=O)[C@H](C)[C@H]2OC3(CCN(c4ccc(NC(=O)c5ccccc5)cc4)CC3)O[C@](C)(C[C@@H](C)CN(C)[C@H](C)[C@@H](O)[C@]1(C)O)[C@H](O[C@@H]1O[C@H](C)CC(N(C)C)[C@H]1O)[C@H]2C (some centres undefined)	1.56 (≈ 1.8 µM)	12.5 (≈ 14.4 µM)	50 (≈ 57.7 µM)
CC[C@H]1OC(=O)[C@H](C)[C@H]2OC3(CCN(c4nccs4)CC3)O[C@](C)(C[C@@H](C)CN(C)[C@H](C)[C@@H](O)[C@]1(C)O)[C@H](O[C@@H]1O[C@H](C)CC(N(C)C)[C@H]1O)[C@H]2C (some centres undefined)	0.39 (≈ 0.517 µM)	3.13 (≈ 4.15 µM)	3.13 (≈ 4.15 µM)
CC[C@H]1OC(=O)[C@H](C)[C@H]2OC3(CCN(c4ccc([N+](=O)[O-])cn4)CC3)O[C@](C)(C[C@@H](C)CN(C)[C@H](C)[C@@H](O)[C@]1(C)O)[C@H](O[C@@H]1O[C@H](C)CC(N(C)C)[C@H]1O)[C@H]2C (some centres undefined)	0.39 (≈ 0.491 µM)	3.13 (≈ 3.94 µM)	6.25 (≈ 7.87 µM)
CC[C@H]1OC(=O)[C@H](C)[C@H]2OC3(CCN(c4ccc(C(N)=O)cn4)CC3)O[C@](C)(C[C@@H](C)CN[C@H](C)[C@@H](O)[C@]1(C)O)[C@H](O[C@@H]1O[C@H](C)CC(N(C)C)[C@H]1O)[C@H]2C (some centres undefined)	0.2 (≈ 0.257 µM)	1.56 (≈ 2.01 µM)	6.25 (≈ 8.03 µM)
CC[C@H]1OC(=O)[C@H](C)[C@H]2OC3(CCN(c4nccc(C(F)(F)F)n4)CC3)O[C@](C)(C[C@@H](C)CN(C)[C@H](C)[C@@H](O)[C@]1(C)O)[C@H](O[C@@H]1O[C@H](C)CC(N(C)C)[C@H]1O)[C@H]2C (some centres undefined)	1.56 (≈ 1.91 µM)	6.25 (≈ 7.64 µM)	12.5 (≈ 15.3 µM)
CC[C@H]1OC(=O)[C@H](C)[C@H]2OC3(CCN(c4cc(CO)cc(Cl)n4)CC3)O[C@](C)(C[C@@H](C)CN[C@H](C)[C@@H](O)[C@]1(C)O)[C@H](O[C@@H]1O[C@H](C)CC(N(C)C)[C@H]1O)[C@H]2C (some centres undefined)	0.2 (≈ 0.25 µM)	1.56 (≈ 1.95 µM)	0.78 (≈ 0.976 µM)
CC[C@H]1OC(=O)[C@H](C)[C@H]2OC3(CCN(c4cncc(Cl)n4)CC3)O[C@](C)(C[C@@H](C)CN(C)[C@H](C)[C@@H](O)[C@]1(C)O)[C@H](O[C@@H]1O[C@H](C)CC(N(C)C)[C@H]1O)[C@H]2C (some centres undefined)	0.39 (≈ 0.497 µM)	1.56 (≈ 1.99 µM)	6.25 (≈ 7.97 µM)
CC[C@H]1OC(=O)[C@H](C)[C@H]2OC3(CCN(c4ccc(C(=O)O)c(C(F)(F)F)c4)CC3)O[C@](C)(C[C@@H](C)CN(C)[C@H](C)[C@@H](O)[C@]1(C)O)[C@H](O[C@@H]1O[C@H](C)CC(N(C)C)[C@H]1O)[C@H]2C (some centres undefined)	3.13 (≈ 3.64 µM)	25 (≈ 29.1 µM)	12.5 (≈ 14.5 µM)
CC[C@H]1OC(=O)[C@H](C)[C@H]2OC3(CCN(c4cc(OC)nc(OC)n4)CC3)O[C@](C)(C[C@@H](C)CN(C)[C@H](C)[C@@H](O)[C@]1(C)O)[C@H](O[C@@H]1O[C@H](C)CC(N(C)C)[C@H]1O)[C@H]2C (some centres undefined)	0.39 (≈ 0.481 µM)	1.56 (≈ 1.93 µM)	6.25 (≈ 7.72 µM)
CC[C@H]1OC(=O)[C@H](C)[C@H]2OC3(CCN(c4nccc(C(F)(F)F)n4)CC3)O[C@](C)(C[C@@H](C)CN[C@H](C)[C@@H](O)[C@]1(C)O)[C@H](O[C@@H]1O[C@H](C)CC(N(C)C)[C@H]1O)[C@H]2C (some centres undefined)	0.78 (≈ 0.97 µM)	1.56 (≈ 1.94 µM)	3.13 (≈ 3.89 µM)
CC[C@H]1OC(=O)[C@H](C)[C@H]2OC3(CCN(c4ccc(C)nn4)CC3)O[C@](C)(C[C@@H](C)CN(C)[C@H](C)[C@@H](O)[C@]1(C)O)[C@H](O[C@@H]1O[C@H](C)CC(N(C)C)[C@H]1O)[C@H]2C (some centres undefined)	0.2 (≈ 0.262 µM)	6.25 (≈ 8.18 µM)	3.13 (≈ 4.1 µM)
